Measured values taken from patent US20250213587A1, “ITK INHIBITORS FOR INCREASING TH1 CELL ACTIVITY” (Corvus Pharmaceuticals, Inc., priority 2022, published 2025).

What was measured:
ITK [1] = biological target: T1, ITK (Homo sapiens, UniProt Q08881); assay: ITK occupancy in patients at steady state; type: in vivo
T1 sequence (Q08881 1-620): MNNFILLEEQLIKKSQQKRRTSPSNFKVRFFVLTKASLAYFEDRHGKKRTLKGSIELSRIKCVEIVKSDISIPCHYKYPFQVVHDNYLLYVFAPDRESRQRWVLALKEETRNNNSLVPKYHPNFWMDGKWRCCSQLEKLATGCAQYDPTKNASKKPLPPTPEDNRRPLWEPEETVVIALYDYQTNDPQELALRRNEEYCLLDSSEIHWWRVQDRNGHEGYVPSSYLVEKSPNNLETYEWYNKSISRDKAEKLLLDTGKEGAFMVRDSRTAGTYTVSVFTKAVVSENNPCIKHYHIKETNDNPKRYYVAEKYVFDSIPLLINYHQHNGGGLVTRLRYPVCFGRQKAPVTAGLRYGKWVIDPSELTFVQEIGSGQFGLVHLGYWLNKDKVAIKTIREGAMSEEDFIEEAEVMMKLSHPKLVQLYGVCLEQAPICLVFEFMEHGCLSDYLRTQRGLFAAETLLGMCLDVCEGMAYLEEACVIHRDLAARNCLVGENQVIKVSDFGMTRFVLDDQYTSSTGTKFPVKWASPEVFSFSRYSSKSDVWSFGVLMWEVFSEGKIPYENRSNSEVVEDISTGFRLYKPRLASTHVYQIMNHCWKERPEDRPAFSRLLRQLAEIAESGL

Lck = Lck (Homo sapiens, UniProt P06239); assay: Human kinome profiling at 1.0 μM, Lck; type: biochemical; settings: read-out: percent control, Lck
Chain of Lck (P06239 whole entry): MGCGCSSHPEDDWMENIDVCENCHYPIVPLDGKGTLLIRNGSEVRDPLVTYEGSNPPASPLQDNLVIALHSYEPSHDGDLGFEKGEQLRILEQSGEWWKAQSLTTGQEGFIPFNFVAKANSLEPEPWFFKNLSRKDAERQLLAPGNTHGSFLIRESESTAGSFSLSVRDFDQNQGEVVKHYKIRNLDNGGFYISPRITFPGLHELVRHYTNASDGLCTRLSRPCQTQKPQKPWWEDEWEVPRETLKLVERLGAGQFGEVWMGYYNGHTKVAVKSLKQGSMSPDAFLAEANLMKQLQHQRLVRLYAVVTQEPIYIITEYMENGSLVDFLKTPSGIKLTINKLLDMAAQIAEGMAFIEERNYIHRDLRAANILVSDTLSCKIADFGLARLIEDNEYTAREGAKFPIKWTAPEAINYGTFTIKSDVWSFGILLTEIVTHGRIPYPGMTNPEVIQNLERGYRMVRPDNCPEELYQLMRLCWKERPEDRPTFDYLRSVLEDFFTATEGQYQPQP

ITK [2] = biological target: T2, ITK (Mus musculus, UniProt Q03526); assay: ITK occupancy in mouse splenocytes; type: in vivo; settings: for receptor occupancy at 50 mg/kg: po
T2 construct: from tissue; host or cells: splenocytes of dosed C57Bl/6 mice
T2 sequence (Q03526 1-625): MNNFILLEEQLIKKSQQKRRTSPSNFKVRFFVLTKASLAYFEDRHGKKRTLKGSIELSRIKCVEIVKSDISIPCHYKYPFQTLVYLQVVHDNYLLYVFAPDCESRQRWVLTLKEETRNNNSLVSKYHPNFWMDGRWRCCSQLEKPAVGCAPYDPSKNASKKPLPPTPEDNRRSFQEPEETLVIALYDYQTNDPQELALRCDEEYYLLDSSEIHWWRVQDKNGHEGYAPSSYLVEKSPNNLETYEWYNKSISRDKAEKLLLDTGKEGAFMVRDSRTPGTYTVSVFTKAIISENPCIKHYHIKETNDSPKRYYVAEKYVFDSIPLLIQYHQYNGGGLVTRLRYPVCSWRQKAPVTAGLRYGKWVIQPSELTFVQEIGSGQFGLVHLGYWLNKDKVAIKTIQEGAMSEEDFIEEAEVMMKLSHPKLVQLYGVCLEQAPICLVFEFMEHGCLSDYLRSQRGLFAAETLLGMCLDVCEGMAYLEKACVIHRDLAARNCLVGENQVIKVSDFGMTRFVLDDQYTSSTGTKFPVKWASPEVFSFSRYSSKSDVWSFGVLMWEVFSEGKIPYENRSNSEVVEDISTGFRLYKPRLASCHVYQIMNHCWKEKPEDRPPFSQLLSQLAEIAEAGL
Procedure: The active site occupancy of ITK by a covalent inhibitor was measured using an irreversibly bound biotinylated probe in an immuno-electrochemiluminescence assay. The binding of an inhibitor and the probe to the ATP binding site is mutually exclusive. In lysates of immune cell lines or immune cells collected from treated animals, the biotinylated probe reacts with free (uninhibited) ITK and is subsequently captured on a streptavidin-coated surface and quantified. The free ITK in each sample is normalized by dividing it by either the lysate protein concentration (BCA protein assay, Pierce) or cell count of the sample. Normalized free ITK values are generated for samples collected prior to and after treatment from which occupancy was calculated using equation 7. Single cell suspensions of Jurkat cells, mouse splenocytes, dog PBMC or purified normal human T cells were prepared. Cell lysis was performed using a buffer containing CelLytic M (Sigma Aldrich) supplemented with protease and phosphatase inhibitors (Pierce). The cell pellet resuspended in lysis buffer was incubated at room temperature for 30 minutes when the lysate was clarified by centrifugation at 20,000×g for 5 minutes at 4° C. A solution of the biotinylated probe CP-613 (27.5 nM final, FIG. 14B) was added to the lysate and incubated with mixing for 60 minutes at room temperature. The lysate mixture (35 μL) was transferred in duplicate to separate wells of a blocked streptavidin-coated plate (Mesoscale Diagnostics) then incubated at room temperature with mixing for 60 minutes. The lysate mixture was removed from the plate and the wells were washed with three rounds of PBS/Tween 20 buffer (Thermo Scientific). Rabbit polyclonal anti-ITK antibody solution (Abcam) was dispensed into the wells of the plate and incubated at room temperature with mixing for 60 minutes. The antibody solution was removed from the wells and washed with three rounds of PBS/Tween 20 buffer. Anti-rabbit antibody (goat) sulfo-TAG (Mesoscale Diagnostics) was dispensed into the wells of the plate then incubated at room temperature with mixing for 60 minutes. The antibody solution was removed from the plate and the wells washed with three rounds of PBS/Tween 20 buffer. Read buffer (Mesoscale Diagnostics) diluted two-fold with water was dispensed into the wells of the plate which was read immediately using an MESO Quickplex SQ 120 instrument.
Male C57Bl/6 mice (6-8 weeks of age) were purchased from Charles River Laboratories. […] At scheduled time points mice were euthanized by asphyxiation by CO2 and their spleens were collected immediately and placed into ice cold PBS (N=4/timepoint). All animal procedures were conducted in accordance with a protocol approved by the IACUC committee at Corvus Pharmaceuticals.

receptor occupancy at 400 mg (ITK [1]; human, 400 mg BID and 600 mg BID, read-out: steady state trough ITK occupancy): ~90% | steady state peak ITK occupancy, mean (ITK [1]; patients, 100-600 mg BID): at least 90% | remaining activity at 1 µM (Lck): 89% | receptor occupancy at 300 mg/kg/day (ITK [2]; mouse, chow formulation, 300 mg/kg/day): 86 to 95% | receptor occupancy at 50 mg/kg (ITK [2]; mouse, 50 mg/kg BID PO, 2 h after dosing): 95% | receptor occupancy at 50 mg/kg (ITK [2]; mouse, 50 mg/kg BID PO, 12 h, prior to second dose): 36% | receptor occupancy at 50 mg/kg (ITK [2]; mouse, single 50 mg/kg PO, 24 h): 17% | receptor occupancy at 50 mg/kg (ITK [2]; mouse, single 50 mg/kg PO, first 8 h): 87 to 98% | ITK occupancy in splenocytes (ITK [2]; single 50 mg/kg PO, first 8 h, 50 mg/kg): > 87% | ITK occupancy (ITK [2]; single dose, 30 to 120 min): essentially complete ITK occupancy
Compound: C=CC(=O)N1CCCN(C(=O)c2cc(Sc3cnc(NC(=O)C4CC4)s3)c(C)cc2OC)C[C@H]1C [CPI-818]
